In US12479843B2, “Spiro ring-containing quinazoline compounds” (WIGEN BIOMEDICINE TECHNOLOGY (SHANGHAI) CO., LTD., priority 2019, dated 2025):
Read-outs that look alike come from different tables or passages of the source.

Experiments:
H358 cells = experiment: Antiproliferative activity against H358 cells (Cell Titer Glow, ultra-low attachment plate); assay type: cell-based; settings: three days after addition of compound
Protocol: 2500 H358 cells were seeded in a 96-well ultra-low attachment plate (corning, 7007). After one day of growth, a serially diluted compound (a maximum concentration of 5 μM, 5-fold dilution, a total of five doses) was added. Three days after the addition of the compound, Cell Titer Glow (Promega, G9681) was added to evaluate pellet growth, and the IC50 value was calculated.

pERK level in H358 cells = experiment: pERK and ERK protein content assay in H358 cells (ELISA); assay type: cell-based; settings: 24 h, pERK/ERK ratio compared with DMSO group; for inhibition at 1 µM: Homo sapiens, NCI-H358, compound 1 μM, read-out: Inhibition rate (%) of pERK level
Outline: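 H358 cells grown one day, then treated 24 h with compound at 1 μM. pERK and ERK in lysates measured by ELISA; pERK/ERK ratio expressed as percent inhibition versus DMSO.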

[1] = Pharmacokinetic evaluation in mice; assay type: in vivo, male ICR mice; settings: for Vd: read-out: Vss; for F: po 10 mg/kg vs iv 2 mg/kg
Protocol: The compounds were administered by intravenous injection at a dose of 2 mg/kg and oral gavage at a dose of 10 mg/kg (0.5% CMC-Na suspension). 15 male ICR mice were selected for each group, and each mouse was subjected to blood collection at 3 discrete time points, with 3 mice per time point. The time points of sampling were as follows: before the administration, and at 5 min, 15 min, 30 min, 1 h, 3 h, 5 h, 8 h, 12 h and 24 h after the administration. 80 μL of blood was collected from the eye sockets or the hearts of the mice at each of the time points after the administration. All whole blood samples were collected in tubes containing EDTA K2 and centrifuged (1500-1600 rmp) at 4° C. for 10 min to isolate plasma, which was then stored in a refrigerator at −90 to −60° C. for sample analysis. The compound concentration in the plasma was determined by liquid chromatography-tandem mass spectrometry, and the corresponding pharmacokinetic parameters were obtained according to a plasma concentration-time curve.

[2] = system: Human pancreatic cancer Mia PaCa-2 cells; experiment: Antitumor activity on graft tumors of human pancreatic cancer Mia PaCa-2 in nude mice; assay type: in vivo; settings: Mia PaCa-2 graft tumors in nude mice, 10 mg/kg intragastric, qd*21
Protocol: Human pancreatic cancer Mia PaCa-2 cells were cultured conventionally in 1640 medium containing 10% fetal bovine serum in a 37° C./5% CO2 incubator. After passage, the cells were collected when they reached the desired amount. 1×10^7 Mia PaCa-2 cells were injected into the left dorsal side of each nude mouse, and the animals were randomly grouped for administration after tumors grew to 150 mm3. The groups are as follows: 1) a solvent control group of 8 mice; and 2) compound 1 group, compound 2 group, compound 5 group, compound 31 group, compound 131 group, compound 142 group, compound 171 group, compound B group and compound C group, with 8 mice per group. Mice in the solvent control group were subjected to intragastric administration of 0.5% CMC-Na once daily; mice in compound 1 group, compound 2 group, compound 5 group, compound 31 group, compound 131 group, compound 142 group, compound 171 group, compound B group and compound C group were subjected to intragastric administration of a suspension of a compound in 0.5% CMC-Na once daily. On Tuesday and Thursday each week, tumor volumes and body weight of the mice were measured, and the nude mice were sacrificed on day 21 of administration.

[3] = Homo sapiens, NCI-H358, 72 h, 96-well ultra-low attachment plate, Cell Titer Glow
[4] = male, ICR, mouse, plasma, iv, 2 mg/kg
[5] = male, ICR, mouse, plasma, iv, 2 mg/kg, read-out: Cmax
[6] = male, ICR, mouse, plasma, iv, 2 mg/kg, read-out: Tmax
[7] = male, ICR, mouse, plasma, po, 10 mg/kg, 0.5% CMC-Na suspension
[8] = male, ICR, mouse, plasma, po, 10 mg/kg, 0.5% CMC-Na suspension, read-out: Cmax
[9] = male, ICR, mouse, plasma, po, 10 mg/kg, 0.5% CMC-Na suspension, read-out: Tmax
[10] = po, 10 mg/kg, 0.5% CMC-Na suspension

Compound: C=CC(=O)N1CC2(CCN(c3nc(N4CC(N5CCCC5)C4)nc4c(OCC(F)(F)F)c(-c5c(C)ccc6[nH]ncc56)c(C5CC5)cc34)CC2)C1 [Compound 171]
- IC50 (H358 cells; [3]): < 300 nM
- IC50 (H358 cells; Homo sapiens, NCI-H358, 72 h): 1.4 nM
- inhibition at 1 µM (pERK level in H358 cells): > 90%
- AUC(0-t) [1, 4]: 26500 ng·h/mL
- clearance [1, 4]: 1.26 mL/min/kg
- half-life [1, 4]: 4.85 h
- Cmax [1, 5]: 4910 ng/mL
- Tmax [1, 6]: 0.083 h
- Vd [1, 4]: 0.505 L/kg
- AUC(0-t) [1, 7]: 35700 ng·h/mL
- half-life [1, 7]: 3.93 h
- Cmax [1, 8]: 3320 ng/mL
- Tmax [1, 9]: 2 h
- F [1]: 26.9%
- Anti-tumor effect (regression) [2]: 38% regression

Compound: C=CC(=O)N1CC2(CCN(c3nc(N4CC(N(C)C)C4)nc4c(OCC(F)(F)F)c(-c5c(C)ccc6[nH]ncc56)c(C=C)cc34)CC2)C1 [Compound C, reference compound]
- IC50 (H358 cells; 96-well ultra-low attachment plate, Cell Titer Glow): < 300 nM
- IC50 (H358 cells): 5.1 nM
- Inhibition rate (%) of pERK level (pERK level in H358 cells; compound 1 μM): +++ (+++ indicates an inhibition rate greater than 90%.)
- Cl ([1]; iv, 2 mg/kg): 1.65 mL/min/kg
- Cmax ([1]; iv, 2 mg/kg): 3210 ng/mL
- Tmax ([1]; iv, 2 mg/kg): 0.083 h
- Vss ([1]; iv, 2 mg/kg): 0.481 L/kg
- t1/2 ([1]; iv, 2 mg/kg): 4.02 h
- F [1]: 24.6%
- Cmax [1, 10]: 3110 ng/mL
- Tmax [1, 10]: 0.5 h
- t1/2 [1, 10]: 3.38 h
- Anti-tumor effect (regression) [2]: 8% regression

Compound: C=CC(=O)N1CC2(CCN(c3nc(OC4CC5(CCN(CCOC)CC5)C4)nc4c(OCC(F)(F)F)c(-c5c(C)ccc6[nH]ncc56)c(C5CC5)cc34)CC2)C1 [Compound 131]
- IC50 (H358 cells; [3]): < 300 nM
- IC50 (H358 cells; Homo sapiens, NCI-H358, 72 h): 1.5 nM
- inhibition at 1 µM (pERK level in H358 cells): > 90%
- AUC(0-t) [1, 4]: 11300 ng·h/mL
- clearance [1, 4]: 1.87 mL/min/kg
- half-life [1, 4]: 4.12 h
- Cmax [1, 5]: 2350 ng/mL
- Tmax [1, 6]: 0.5 h
- Vd [1, 4]: 2.1 L/kg
- AUC(0-t) [1, 7]: 22300 ng·h/mL
- half-life [1, 7]: 5.86 h
- Cmax [1, 8]: 1820 ng/mL
- Tmax [1, 9]: 2 h
- F [1]: 39.4%
- Anti-tumor effect (regression) [2]: 37% regression

Compound: C=C(F)C(=O)N1CC2(CCN(c3nc(OC4CCN(CCOC)CC4)nc4c(OCC)c(-c5c(C)ccc6[nH]ncc56)c(C5CC5)cc34)CC2)C1 [Compound 2]
- IC50 (H358 cells; [3]): < 300 nM
- inhibition at 1 µM (pERK level in H358 cells): > 90%
- Anti-tumor effect (regression) [2]: 23% regression

Compound: C=Cc1cc2c(N3CCC4(CC3)CN(C(=O)C(=C)F)C4)nc(OC3CCN(CCOC)CC3)nc2c(OCC(F)(F)F)c1-c1c(C)ccc2[nH]ncc12 [Compound 5]
- IC50 (H358 cells; [3]): < 300 nM
- inhibition at 1 µM (pERK level in H358 cells): > 90%
- Anti-tumor effect (regression) [2]: 30% regression

Compound: C=CC(=O)N1CC2(CCN(c3nc(N4CC[C@@H](N5CCC5)C4)nc4c(OCC(F)(F)F)c(-c5c(C)ccc6[nH]ncc56)c(C5CC5)cc34)CC2)C1 [Compound 182]
- IC50 (H358 cells; [3]): < 300 nM
- inhibition at 1 µM (pERK level in H358 cells): > 90%

Compound: C=C(F)C(=O)N1CC2(CCN(c3nc(N4CC5(CCN(CCOC)CC5)C4)nc4c(OCC(F)(F)F)c(-c5c(C)ccc6[nH]ncc56)c(C5CC5)cc34)CC2)C1 [Compound 92]
- IC50 (H358 cells; [3]): < 300 nM
- inhibition at 1 µM (pERK level in H358 cells): > 90%

Compound: C=C(F)C(=O)N1CC2(CCN(c3nc(N4CC5(CCN(C)C5)C4)nc4c(OCC(F)(F)F)c(-c5c(C)ccc6[nH]ncc56)c(C5CC5)cc34)CC2)C1 [Compound 74]
- IC50 (H358 cells; [3]): < 300 nM
- inhibition at 1 µM (pERK level in H358 cells): > 90%

Compound: C=CC(=O)N1CC2(CCN(c3nc(N4CC5(CN(CC6CC6)C5)C4)nc4c(OCC(F)(F)F)c(-c5c(C)ccc6[nH]ncc56)c(C5CC5)cc34)CC2)C1 [Compound 157]
- IC50 (H358 cells; [3]): < 300 nM
- inhibition at 1 µM (pERK level in H358 cells): > 90%

Compound: C=C(F)C(=O)N1CC2(CCN(c3nc(OC4CCN(CCOC)CC4)nc4c(OCC(F)F)c(-c5c(C)ccc6[nH]ncc56)c(C5CC5)cc34)CC2)C1 [Compound 3]
- IC50 (H358 cells; [3]): < 300 nM
- inhibition at 1 µM (pERK level in H358 cells): > 90%

Compound: C=CC(=O)N1CC2(CCN(c3nc(N4CCC5(CCN(C)CC5)C4)nc4c(OCC(F)(F)F)c(-c5c(C)ccc6[nH]ncc56)c(C5CC5)cc34)CC2)C1 [Compound 161]
- IC50 (H358 cells; [3]): < 300 nM
- inhibition at 1 µM (pERK level in H358 cells): > 90%

Compound: C=C(F)C(=O)N1CC2(CCN(c3nc(N4CC5(CCN(C)CC5)C4)nc4c(OCC(F)(F)F)c(-c5c(C)ccc6[nH]ncc56)c(C5CC5)cc34)CC2)C1 [Compound 78]
- IC50 (H358 cells; [3]): 300 to 1000 nM
- inhibition at 1 µM (pERK level in H358 cells): 50 to 90%
